From article PMC9643456, “Matching amino acids membrane preference profile to improve activity of antimicrobial peptides” (Communications Biology, 2022)
Values after ≈ are worked out from the molar mass of the structure shown. Square brackets hold non-standard residues; d marks the D form. Ends that are not written are not given here. Peptide text beside a SMILES is read from it.

What was measured:
MDR A. baumannii = assay: microbe, parasite or virus in culture; settings: CLSI broth microdilution; CAMHB with 50 mg/L Ca2+, 10 mg/L Mg2+; 5 × 10^5 CFU/ml; 18 h 37 °C; triplicate; strain ATCC BAA-1605
Description: (§1) MDR Pseudomonas aeruginosa (CCARM 2180) was purchased from the Culture Collection of Antimicrobial Resistance Microbes (Seoul, Republic of Korea). MDR Acinetobacter baumannii (ATCC BAA-1605) and MDR Enterococcus faecalis (ATCC 51575) were purchased from the American Type Culture Collection (Manassas, VA, USA). MDR Staphylococcus aureus (KCCM 40510) was purchased from the Korean Culture Center of Microorganisms (Seoul, Republic of Korea). S. aureus (KCTC 1621) was purchased from the Korean Collection for Type Cultures. A. baumannii (KCCM 40203) was purchased from the Korean Culture Center of Microorganisms (Seoul, Republic of Korea).
(§2) To assess antimicrobial activity, the MIC50 and MIC90 were measured using broth microdilution following CLSI guidelines. […] Each experiment was performed in triplicate. Meropenem (Sigma, Darmstadt, Germany) and colistin were used as control antibiotics. Cation-adjusted Mueller–Hinton broth (CAMHB) (Becton, Dickinson and Company, Franklin Lakes, USA) with supplied calcium (50 mg/L) and magnesium (10 mg/L) was used for the CLSI-test condition. Bacteria in midlog phase and peptides were separately diluted in CAMHB. The bacteria and peptide solutions were then mixed in 96-well polyethylene plates (SPL, Gyeonggi-do, Korea) and incubated for 18 h at 37 °C. The final concentration for bacteria was 5 × 10^5 CFU/ml. […] The MIC was defined to be the lowest concentration of peptide without visible turbidity by comparing with control antibiotics with the unaided eye. […] Each experiment was performed in triplicate. MICs in albumin and acetic acid solutions were measured using the same protocol but with 0.2% bovine serum albumin (Bovogen, Keilor, Australia), 0.01% acetic acid (Merck, New Jersey, USA), and CAMHB with both calcium and magnesium. In addition, MICs used in the antibiotic resistance acquisition test, the outer–inner membrane permeation test, and the transmembrane potential test and for FE-SEM were individually determined. The final bacterial concentrations used were as follows: for resistance acquisition, optical density (OD) 0.01; for outer–inner membrane permeability assays (LB), OD 0.1; for the transmembrane potential test, 1 × 10^8 CFU/ml (OD 0.171); […]. Inhibitory activity unidentifiable by direct observation was determined by counting the CFUs. Each experiment was performed at least twice.

MDR P. aeruginosa = assay: microbe, parasite or virus in culture; settings: CLSI broth microdilution; CAMHB with 50 mg/L Ca2+, 10 mg/L Mg2+; 5 × 10^5 CFU/ml; 18 h 37 °C; no visible turbidity; triplicate; strain CCARM 2180
Description: as §1, §2

MDR S. aureus = assay: microbe, parasite or virus in culture; settings: CLSI broth microdilution; CAMHB with 50 mg/L Ca2+, 10 mg/L Mg2+; 5 × 10^5 CFU/ml; 18 h 37 °C; triplicate; strain KCCM 40510
Description: as §1, §2

human red blood cells = assay: Hemolytic activity; assay type: cell-based; settings: red cells of human, 18 h
Method: Human red blood cells (Zenbio, North Carolina, USA) and peptides were separately diluted in PBS (blood concentration, 8%). The blood cell and peptide solutions were then mixed in 96-well polyethylene plates (SPL, Gyeonggi-do, Korea) and incubated for 18 h at 37 °C. The final concentration of human red blood cells was 4%, while peptide concentrations were 100 μM, 50 μM, 25 μM, 12.5 μM, 6.25 μM, 3.13 μM, 1.56 μM, and 0.78 μM. After incubation, the plates were centrifuged at 1000 × g for 5 min, and the supernatants were transferred to 96-well polyethylene plates. Hemolysis levels were determined by measuring the absorbance at 540 nm with a SpectraMax plate spectrophotometer (Molecular Devices, California, USA). Control samples were treated with 1% Triton X-100 (for 100% hemolysis) or solution with 0 μM peptide (for 0% hemolysis) and melittin (for positive control). Each experiment was performed in triplicate.

Compound	Minimum inhibitory concentrations, MDR A. baumannii (MDR A. baumannii) [µM]	Minimum inhibitory concentrations, MDR P. aeruginosa (MDR P. aeruginosa) [µM]	Minimum inhibitory concentrations, MDR S. aureus (MDR S. aureus) [µM]	Hemolysis percent, 25 μM (human red blood cells) [%]	Hemolysis percent, 50 μM (human red blood cells) [%]	Hemolysis percent, 100 μM (human red blood cells) [%]
CC[C@@H](C)[C@@H](NC(=O)[C@@H](Cc1c[nH]c2ccccc12)NC(=O)[C@@H](CCCNC(=N)N)NC(=O)[C@@H](CCCNC(=N)N)NC(=O)[C@H](N)CCCNC(=N)N)C(=O)N[C@H](Cc1c[nH]c2ccccc12)C(=O)N[C@@H](C(=O)N[C@@H](C(=O)N[C@H](Cc1c[nH]c2ccccc12)C(N)=O)[C@H](C)CC)[C@H](C)CC [WCopW60] (H-[dR][dR][dR][dW][dI][dW][dI][dI][dW]-NH2)	1.25 (≈ 1.73 µg/mL)	5 (≈ 6.92 µg/mL)	0.63 (≈ 0.872 µg/mL)	15.51 ± 0.64	15.14 ± 3.22	15.17 ± 0.19
CC(C)[C@@H](NC(=O)[C@H](N)Cc1c[nH]c2ccccc12)C(=O)N[C@@H](C(=O)N[C@@H](C(=O)N[C@@H](C(=O)N[C@H](Cc1c[nH]c2ccccc12)C(=O)N[C@H](CCCNC(=N)N)C(=O)N[C@H](CCCNC(=N)N)C(=O)N[C@H](CCCNC(=N)N)C(N)=O)C(C)C)C(C)C)C(C)C [WCopW44] (H-[dW][dV][dV][dV][dV][dW][dR][dR][dR]-NH2)	2.5 (≈ 3.14 µg/mL)	–	1.25 (≈ 1.57 µg/mL)	0.11 ±0.03	0.87 ±0.36	4.48 ±1.01
WLLWIALRKKR-NH2 [WCopW1]	–	> 20	–	7.03	10.46	19.40
CC[C@@H](C)[C@@H](NC(=O)[C@@H](Cc1c[nH]c2ccccc12)NC(=O)[C@H](NC(=O)[C@@H](CC(C)C)NC(=O)[C@@H](Cc1c[nH]c2ccccc12)NC(=O)[C@H](N)CCCCN)C(C)C)C(=O)N[C@H](Cc1c[nH]c2ccccc12)C(=O)N[C@H](CCCNC(=N)N)C(=O)N[C@H](CCCNC(=N)N)C(=O)N[C@H](CCCNC(=N)N)C(N)=O [WCopW35] (H-[dK][dW][dL][dV][dW][dI][dW][dR][dR][dR]-NH2)	0.63 (≈ 0.944 µg/mL)	2.5 (≈ 3.74 µg/mL)	0.63 (≈ 0.944 µg/mL)	1.18 ±0.34	2.71 ±0.63	6.07 ±1.01
CC[C@@H](C)[C@@H](NC(=O)[C@@H](Cc1c[nH]c2ccccc12)NC(=O)[C@@H](CC(C)C)NC(=O)[C@H](N)CC(C)C)C(=O)N[C@H](C)C(=O)N[C@H](CC(C)C)C(=O)N[C@H](CCCNC(=N)N)C(=O)N[C@H](CCCCN)C(=O)N[C@H](CCCCN)C(=O)N[C@H](CCCNC(=N)N)C(N)=O [WCopW11] (H-[dL][dL][dW][dI][dA][dL][dR][dK][dK][dR]-NH2)	–	–	–	0.94	1.02	1.08
CC[C@@H](C)[C@@H](NC(=O)[C@@H](Cc1c[nH]c2ccccc12)NC(=O)[C@H](NC(=O)[C@@H](CC(C)C)NC(=O)[C@H](N)Cc1c[nH]c2ccccc12)C(C)C)C(=O)N[C@H](Cc1c[nH]c2ccccc12)C(=O)N[C@H](CCCNC(=N)N)C(=O)N[C@H](CCCNC(=N)N)C(=O)N[C@H](CCCCN)C(=O)N[C@H](CCCNC(=N)N)C(N)=O [WCopW28] (H-[dW][dL][dV][dW][dI][dW][dR][dR][dK][dR]-NH2)	–	–	–	2.33	1.97	5.26
CC(C)C[C@@H](NC(=O)[C@H](N)Cc1c[nH]c2ccccc12)C(=O)N[C@@H](C(=O)N[C@H](Cc1c[nH]c2ccccc12)C(=O)N[C@H](CCCCN)C(=O)N[C@H](Cc1c[nH]c2ccccc12)C(=O)N[C@H](CCCNC(=N)N)C(=O)N[C@H](CCCNC(=N)N)C(=O)N[C@H](CCCNC(=N)N)C(N)=O)C(C)C [WCopW37] (H-[dW][dL][dV][dW][dK][dW][dR][dR][dR]-NH2)	2.5 (≈ 3.46 µg/mL)	–	5 (≈ 6.92 µg/mL)	0.13 ±0.02	0.08 ±0.01	0.16 ±0.03
CC[C@@H](C)[C@@H](NC(=O)[C@@H](Cc1c[nH]c2ccccc12)NC(=O)[C@@H](CC(C)C)NC(=O)[C@@H](CC(C)C)NC(=O)[C@H](N)Cc1c[nH]c2ccccc12)C(=O)N[C@H](C)C(=O)N[C@H](CC(C)C)C(=O)N[C@H](CCCNC(=N)N)C(=O)N[C@H](CCCCN)C(=O)N[C@H](CCCCN)C(N)=O [WCopW7] (H-[dW][dL][dL][dW][dI][dA][dL][dR][dK][dK]-NH2)	–	–	–	7.25	10.05	14.99
CC[C@@H](C)[C@@H](NC(=O)[C@@H](Cc1c[nH]c2ccccc12)NC(=O)[C@H](NC(=O)[C@@H](CC(C)C)NC(=O)[C@H](N)Cc1c[nH]c2ccccc12)C(C)C)C(=O)N[C@H](Cc1c[nH]c2ccccc12)C(=O)N[C@H](CCCNC(=N)N)C(=O)N[C@H](CCCNC(=N)N)C(=O)N[C@H](CCC(N)=O)C(=O)N[C@H](CCCNC(=N)N)C(N)=O [WCopW31] (H-[dW][dL][dV][dW][dI][dW][dR][dR][dQ][dR]-NH2)	–	–	–	0.35	1.82	6.88
CC[C@@H](C)[C@@H](NC(=O)[C@@H](Cc1c[nH]c2ccccc12)NC(=O)[C@@H](Cc1ccc(O)cc1)NC(=O)[C@@H](CC(C)C)NC(=O)[C@H](N)Cc1c[nH]c2ccccc12)C(=O)N[C@H](CC(C)C)C(=O)N[C@H](CC(C)C)C(=O)N[C@H](CCCNC(=N)N)C(=O)N[C@H](CCCCN)C(=O)N[C@H](CCCCN)C(=O)N[C@H](CCCNC(=N)N)C(N)=O [WCopWYL] (H-[dW][dL][dY][dW][dI][dL][dL][dR][dK][dK][dR]-NH2)	–	–	–	2.50	6.29	9.62
CC(C)C[C@@H](NC(=O)[C@H](N)Cc1c[nH]c2ccccc12)C(=O)N[C@@H](C(=O)N[C@H](Cc1c[nH]c2ccccc12)C(=O)N[C@@H](C(=O)N[C@H](Cc1ccc(O)cc1)C(=O)N[C@H](CC(C)C)C(=O)N[C@H](CCCNC(=N)N)C(=O)N[C@H](CCCCN)C(=O)N[C@H](CCCCN)C(=O)N[C@H](CCCNC(=N)N)C(N)=O)C(C)C)C(C)C [WCopWVY2] (H-[dW][dL][dV][dW][dV][dY][dL][dR][dK][dK][dR]-NH2)	–	–	–	3.46	6.02	10.12
CC[C@@H](C)[C@@H](NC(=O)[C@@H](Cc1c[nH]c2ccccc12)NC(=O)[C@H](NC(=O)[C@@H](CC(C)C)NC(=O)[C@@H](Cc1c[nH]c2ccccc12)NC(=O)[C@H](N)CC(=O)O)C(C)C)C(=O)N[C@H](Cc1c[nH]c2ccccc12)C(=O)N[C@H](CCCNC(=N)N)C(=O)N[C@H](CCCNC(=N)N)C(=O)N[C@H](CCCNC(=N)N)C(N)=O [WCopW36] (H-[dD][dW][dL][dV][dW][dI][dW][dR][dR][dR]-NH2)	–	–	1.25 (≈ 1.86 µg/mL)	4.03 ±0.40	7.48 ±0.90	9.86 ±1.62
